Source: ChEMBL document CHEMBL4742387, “Condensed tricyclic compounds as protein kinase inhibitors” (2018)

How the values were obtained:
MDA-MB-231 = experiment: Antiproliferative activity against human MDA-MB-231 cells assessed as reduction in cell proliferation by CellTiter-Glo luminescent cell viability assay; type: functional
SW-620 [1] = experiment: Antiproliferative activity against human SW-620 cells assessed as reduction in cell proliferation by CellTiter-Glo luminescent cell viability assay; type: functional
MOLM-13 = experiment: Antiproliferative activity against human MOLM-13 cells assessed as reduction in cell proliferation by CellTiter-Glo luminescent cell viability assay; type: functional
MV4-11 = experiment: Antiproliferative activity against human MV4-11 cells assessed as reduction in cell proliferation by CellTiter-Glo luminescent cell viability assay; type: functional
BXPC-3 = experiment: Antiproliferative activity against human BXPC-3 cells assessed as reduction in cell proliferation by CellTiter-Glo luminescent cell viability assay; type: functional
HCT-116 = experiment: Antiproliferative activity against human HCT-116 cells assessed as reduction in cell proliferation by CellTiter-Glo luminescent cell viability assay; type: functional
DU-145 = experiment: Antiproliferative activity against human DU-145 cells assessed as reduction in cell proliferation by CellTiter-Glo luminescent cell viability assay; type: functional
SK-MEL19 = experiment: Antiproliferative activity against human SK-MEL19 cells assessed as reduction in cell proliferation by CellTiter-Glo luminescent cell viability assay; type: functional
[2] = molecular target: T1, Serine/threonine-protein kinase haspin (Homo sapiens) (UniProt Q8TF76); experiment: Inhibition of haspin in human SW620 cells assessed as reduction in IFNgamma-induced H3T3 phosphorylation pre-incubated for 1 hr before IFNgamma stimulation for 3 hrs by Western blot analysis; type: cell-based; conditions: SW-620, time 4.0 hrs
T1 sequence (whole entry): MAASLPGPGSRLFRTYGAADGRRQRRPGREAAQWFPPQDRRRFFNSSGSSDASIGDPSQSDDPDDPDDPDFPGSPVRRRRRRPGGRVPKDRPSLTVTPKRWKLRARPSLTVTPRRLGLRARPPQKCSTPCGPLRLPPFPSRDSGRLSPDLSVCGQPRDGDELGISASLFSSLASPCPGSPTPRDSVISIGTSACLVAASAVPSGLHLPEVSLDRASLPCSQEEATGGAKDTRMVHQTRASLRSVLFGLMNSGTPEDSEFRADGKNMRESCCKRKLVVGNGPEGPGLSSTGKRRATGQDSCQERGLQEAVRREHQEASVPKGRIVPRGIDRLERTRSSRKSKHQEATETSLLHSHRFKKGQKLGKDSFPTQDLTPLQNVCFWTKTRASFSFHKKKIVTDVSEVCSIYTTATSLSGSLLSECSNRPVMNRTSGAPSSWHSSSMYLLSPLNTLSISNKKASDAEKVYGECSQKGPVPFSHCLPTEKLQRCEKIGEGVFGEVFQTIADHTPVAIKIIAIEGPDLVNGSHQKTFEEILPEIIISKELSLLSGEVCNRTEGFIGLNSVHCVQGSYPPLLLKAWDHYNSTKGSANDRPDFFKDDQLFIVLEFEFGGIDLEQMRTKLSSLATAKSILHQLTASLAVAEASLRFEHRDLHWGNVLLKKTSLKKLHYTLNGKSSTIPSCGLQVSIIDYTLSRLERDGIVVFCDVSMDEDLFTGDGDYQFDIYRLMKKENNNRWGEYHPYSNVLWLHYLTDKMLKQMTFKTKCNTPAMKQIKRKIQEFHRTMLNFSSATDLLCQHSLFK

[3] = molecular target: T2, Cyclin-dependent kinase 8 (Homo sapiens, UniProt P49336); experiment: Inhibition of CDK8 in human SW-620 cells assessed as reduction in STAT1 S727 phosphorylation pre-incubated for 1 hr before IFNgamma stimulation for 3 hrs by Western blot analysis; type: cell-based; conditions: time 4.0 hrs
[4] = molecular target: T2, Cyclin-dependent kinase 8; experiment: Inhibition of CDK8 in human SW-620 cells assessed as reduction in IFNgamma-induced STAT1 S727 phosphorylation pre-incubated for 1 hr before IFNgamma stimulation for 3 hrs by Western blot analysis; type: cell-based; conditions: time 4.0 hrs
SW-620 [5] = experiment: Inhibition of colony formation of human SW-620 cells incubated for 11 days (Every 3 days medium is changed by fresh medium and compounds were added freshly) by crystal violet staining based assay; type: functional, cell-based
[6] = molecular target: T1, Serine/threonine-protein kinase haspin (Homo sapiens); experiment: Inhibition of haspin in synchronized human SW620 cells assessed as reduction in IFNgamma-induced H3T3 phosphorylation pre-incubated for 1 hr before IFNgamma stimulation for 3 hrs by Western blot analysis; type: cell-based; conditions: SW-620, time 4.0 hrs
A549 = experiment: Antiproliferative activity against human A549 cells assessed as reduction in cell proliferation by CellTiter-Glo luminescent cell viability assay; type: functional
[7] = molecular target: Cyclin-C/Cyclin-dependent kinase 19 (Homo sapiens, UniProt Q9BWU1); experiment: Inhibition of kinase tracer 236 binding to full-length His-tagged recombinant human CDK19/cyclin C incubated for 60 mins by FRET based LanthaScreen Eu-Kinase binding assay; type: protein-complex assay
CDK8/Cyclin C = CDK8/Cyclin C (Homo sapiens, UniProt P49336); experiment: Inhibition of kinase tracer 236 binding to full-length His-tagged recombinant human CDK8/cyclin C incubated for 60 mins by FRET based LanthaScreen Eu-Kinase binding assay; type: protein-complex assay
[8] = molecular target: T3, Serine/threonine-protein kinase haspin (Homo sapiens, UniProt Q8TF76); experiment: Inhibition of GST-tagged recombinant human haspin kinase domain incubated for 60 mins by ADP-Glo luminescent kinase assay
T3 sequence (Q8TF76 whole entry): T1 sequence (whole entry)

Sequence of Cyclin-C/Cyclin-dependent kinase 19 (Q9BWU1 whole entry): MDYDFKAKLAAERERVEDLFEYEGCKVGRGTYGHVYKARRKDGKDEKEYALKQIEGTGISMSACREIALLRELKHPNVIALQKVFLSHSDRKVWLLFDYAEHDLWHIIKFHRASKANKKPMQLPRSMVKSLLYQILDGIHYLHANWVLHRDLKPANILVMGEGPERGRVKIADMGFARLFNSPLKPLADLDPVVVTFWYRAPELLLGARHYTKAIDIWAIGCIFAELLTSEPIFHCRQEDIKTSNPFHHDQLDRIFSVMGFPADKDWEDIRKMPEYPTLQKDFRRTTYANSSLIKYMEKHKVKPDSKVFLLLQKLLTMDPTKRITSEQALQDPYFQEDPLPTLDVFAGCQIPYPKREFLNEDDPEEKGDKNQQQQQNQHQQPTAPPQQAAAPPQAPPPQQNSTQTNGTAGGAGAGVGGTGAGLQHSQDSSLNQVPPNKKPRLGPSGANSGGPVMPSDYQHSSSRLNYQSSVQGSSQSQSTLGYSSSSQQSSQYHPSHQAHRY
Sequence of Cyclin-C/Cyclin-dependent kinase 19 (P24863 whole entry, further chain): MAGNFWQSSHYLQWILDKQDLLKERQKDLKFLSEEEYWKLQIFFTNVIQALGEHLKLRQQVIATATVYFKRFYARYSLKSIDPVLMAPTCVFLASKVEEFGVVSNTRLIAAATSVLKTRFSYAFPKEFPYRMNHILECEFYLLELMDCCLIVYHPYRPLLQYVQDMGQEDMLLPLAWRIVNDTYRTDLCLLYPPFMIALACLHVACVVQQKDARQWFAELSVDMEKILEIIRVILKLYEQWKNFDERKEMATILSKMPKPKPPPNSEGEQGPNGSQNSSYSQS
T2 sequence (P49336 whole entry): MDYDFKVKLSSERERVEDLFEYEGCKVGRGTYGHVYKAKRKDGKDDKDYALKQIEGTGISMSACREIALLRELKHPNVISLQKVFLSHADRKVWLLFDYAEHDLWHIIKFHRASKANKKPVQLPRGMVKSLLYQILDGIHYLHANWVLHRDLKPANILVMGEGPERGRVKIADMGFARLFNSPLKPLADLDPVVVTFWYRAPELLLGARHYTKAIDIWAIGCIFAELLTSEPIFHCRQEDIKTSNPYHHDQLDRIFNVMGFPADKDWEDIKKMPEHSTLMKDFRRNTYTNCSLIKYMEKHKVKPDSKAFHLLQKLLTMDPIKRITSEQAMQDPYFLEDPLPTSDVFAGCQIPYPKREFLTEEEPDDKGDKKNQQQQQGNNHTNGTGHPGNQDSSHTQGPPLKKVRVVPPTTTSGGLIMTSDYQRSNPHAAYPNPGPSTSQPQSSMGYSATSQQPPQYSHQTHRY
Sequence of CDK8/Cyclin C (P49336 whole entry, the tested form may be a part): as the sequence (P49336 whole entry) above
Sequence of CDK8/Cyclin C (P24863 whole entry, further chain, the tested form may be a part): as the sequence (P24863 whole entry, further chain) above

SMILES | GI50 (MDA-MB-231; Homo sapiens, MDA-MB-231) [µM] | GI50 (SW-620 [1]; Homo sapiens, SW-620) [µM] | GI50 (MOLM-13; Homo sapiens, MOLM-13) [µM] | GI50 (MV4-11; Homo sapiens, MV4-11) [µM] | INH [3] [nM] | further results
Cn1c(C(N)=O)cc2c1-c1ccncc1OC21CCOCC1 | 1 | 1 | < 1 | < 1 |  | 
NC(=O)c1cc2c([nH]1)-c1ccncc1OC21CCN(CCc2ccccc2)CC1 | 1 | 1 | < 1 | < 1 |  | 
C[C@@H](Oc1cc(-c2cnn(C3CCNCC3)c2)cnc1N)c1c(Cl)ccc(F)c1Cl [CRIZOTINIB] |  | 1 |  |  |  | GI50 (BXPC-3): 5 µM; GI50 (HCT-116): 5 µM; GI50 (DU-145): 20 µM; GI50 (SK-MEL19): 5 µM
CCn1c(C(N)=O)cc2c1-c1ccncc1OC21CCOCC1 | 1 | 1 | < 1 | < 1 | < 500 | INH [2]: < 500 nM
COc1ccccc1-c1c2c(n(CCF)c1C(N)=O)-c1ccncc1OC2(C)C |  |  |  |  |  | INH [4]: < 500 nM; EC50 (SW-620 [5]): 5.43 µM; INH [6]: 0.5 µM
CCn1c(C(N)=O)cc2c1-c1ccncc1OC21CCCCC1 [listing 1 of 3 here] |  |  |  |  | < 500 | INH [2]: < 500 nM
CC1(C)Oc2cnccc2-c2[nH]c(C(N)=O)c(C3CC3)c21 | 1 | 1 | 1 | < 1 | < 500 | 
NC(=O)c1cc2c(n1CCF)-c1ccncc1OC21CCCCC1 | 1 | 1 | < 1 | < 1 | < 500 | INH [2]: < 500 nM
CN(NC(=O)CC(=O)NN(C)C(=S)c1ccccc1)C(=S)c1ccccc1 [ELESCLOMOL] | 0.25 | 0.25 |  |  |  | GI50 (BXPC-3): 0.062 µM; GI50 (A549): 0.25 µM; GI50 (SK-MEL19): 0.25 µM
NC(=O)c1cc2c([nH]1)-c1ccncc1OC2C1CCCCC1 (centres undefined) | 1 | < 1 | < 1 | < 1 |  | IC50 [7]: 0.0873 µM; INH [4]: < 500 nM; IC50 (CDK8/Cyclin C): 0.0193 µM; INH [6]: 0.5 µM
COc1ccc(S(=O)(=O)Nc2cccnc2Nc2ccc(O)cc2)cc1 [ABT-751] |  | 0.5 |  |  |  | 
COCCn1c(C(N)=O)cc2c1-c1ccncc1OC21CCOCC1 | 10 | 10 | 10 | 1 |  | 
COc1cc(Nc2ncc3c(n2)-c2ccc(Cl)cc2C(c2c(F)cccc2OC)=NC3)ccc1C(=O)O [ALISERTIB] |  | 0.5 |  |  |  | GI50 (HCT-116): 12.5 µM; GI50 (DU-145): 12.5 µM
CC1(C)Oc2cncc(Cl)c2-c2[nH]c(C(N)=O)cc21 |  |  |  | < 1 |  | 
CCn1c(C(N)=O)cc2c1-c1ccncc1OC2C1CCCCC1 (stereo in doubt; form 1) | 10 | 10 | < 1 | < 1 |  | IC50 [7]: 0.00141 µM; IC50 [8]: 0.0952 µM; IC50 (CDK8/Cyclin C): 0.000407 µM
NC(=O)c1cc2c([nH]1)-c1ccncc1OC2C1CCOCC1 (stereo in doubt; form 1) [listing 1 of 2 here] |  |  | 1 | < 1 |  | GI50 (MDA-MB-231): 1 µM; GI50 (SW-620 [1]): 1 µM; IC50 [8]: 5.76 µM; IC50 (CDK8/Cyclin C): 0.281 µM
CC(=O)O[C@H]1C(=O)[C@@]2(C)[C@H]([C@H](OC(=O)c3ccccc3)[C@]3(O)C[C@H](OC(=O)[C@H](O)[C@@H](NC(=O)c4ccccc4)c4ccccc4)C(C)=C1C3(C)C)[C@]1(OC(C)=O)CO[C@@H]1C[C@@H]2O [PACLITAXEL] |  | 0.005 |  |  |  | GI50 (HCT-116): 0.005 µM
CCn1c(C(N)=O)cc2c1-c1ccncc1OC2C1CCCCC1 (stereo in doubt; form 2) [listing 1 of 2 here] |  |  |  |  |  | GI50 (MOLM-13): 1 µM; IC50 [8]: 0.522 µM; IC50 (CDK8/Cyclin C): 0.00136 µM
NC(=O)c1cc2c(n1CCF)-c1ccncc1OC21CCOCC1 |  |  |  |  |  | IC50 (CDK8/Cyclin C): < 0.00141 µM
NC(=O)c1cc2c([nH]1)-c1ccncc1OC21CCC1 | 1 | 10 | < 1 | < 1 | < 500 | 

SMILES | GI50 (MDA-MB-231; Homo sapiens, MDA-MB-231) [µM] | GI50 (SW-620 [1]; Homo sapiens, SW-620) [µM] | GI50 (MOLM-13; Homo sapiens, MOLM-13) [µM] | GI50 (MV4-11; Homo sapiens, MV4-11) [µM] | INH [3] [nM] | further results
COCCn1c(C(N)=O)cc2c1-c1ccncc1OC2(C)C |  |  |  |  |  | INH [4]: < 500 nM; INH [6]: < 0.5 µM
Cn1c(C(N)=O)cc2c1-c1ccncc1OC21CCCCC1 | 1 | 1 | < 1 | < 1 | < 500 | 
NC(=O)c1cc2c([nH]1)-c1ccncc1O[C@H]2C1CCCCC1 | 10 | 1 | 1 | < 1 | < 500 | IC50 [7]: 0.00714 µM; INH [2]: < 500 nM; INH [4]: < 500 nM; IC50 (CDK8/Cyclin C): 0.0085 µM; INH [6]: < 0.5 µM
CC1(C)Oc2cnccc2-c2[nH]c(C(N)=O)cc21 | 10 |  |  | 1 |  | 
NC(=O)c1cc2c(n1CCF)-c1ccncc1OC21CCC1 | 1 | 1 | < 1 | < 1 | < 500 | 
CCn1c(C(N)=O)c(-c2cccc(OC)c2)c2c1-c1ccncc1OC2(C)C | 10 | 10 | 1 | < 1 |  | 
NC(=O)c1cc2c([nH]1)-c1ccncc1OC2C1CCOCC1 (stereo in doubt; form 1) [listing 2 of 2 here] |  |  |  |  |  | INH [4]: 500 nM; INH [6]: 0.5 µM
CCn1c(C(N)=O)cc2c1-c1ccncc1OC21CCCCC1 [listing 2 of 3 here] | 1 | 1 | < 1 | < 1 |  | 
NC(=O)c1cc2c([nH]1)-c1ccncc1OC2C1CCOCC1 (stereo in doubt; form 2) [listing 1 of 2 here] |  |  |  |  |  | GI50 (MDA-MB-231): 10 µM; IC50 [7]: 0.0142 µM; GI50 (SW-620 [1]): 10 µM; IC50 [8]: 0.406 µM; IC50 (CDK8/Cyclin C): 0.00446 µM; GI50 (MV4-11): 1 µM
CCn1c(C(N)=O)cc2c1-c1ccncc1OC2C1CCCCC1 (stereo in doubt; form 2) [listing 2 of 2 here] |  |  |  |  | < 500 | INH [2]: < 500 nM
CCn1c(C(N)=O)c(Cl)c2c1-c1ccncc1OC21CCCCC1 |  |  |  |  |  | IC50 (CDK8/Cyclin C): < 0.00141 µM
CCn1c(C(N)=O)cc2c1-c1ccncc1OC21CCN(CC(F)(F)F)CC1 | 1 | 1 | < 1 | < 1 | < 500 | INH [2]: < 500 nM
CCn1c(C(N)=O)cc2c1-c1ccncc1OC2C1CCOCC1 (centres undefined) |  |  |  |  |  | IC50 [8]: 0.355 µM; IC50 (CDK8/Cyclin C): < 0.00141 µM
CC1(C)Oc2cnccc2-c2c1cc(C(N)=O)n2CCF | 1 | 1 | < 1 | < 1 | < 500 | INH [2]: < 500 nM; INH [4]: < 500 nM; INH [6]: < 0.5 µM
Cn1c(C(N)=O)cc2c1-c1ccncc1OC2(C)C | 1 | 10 | 1 | < 1 |  | 
CCn1c(C(N)=O)c(-c2ccccc2OC)c2c1-c1ccncc1OC2(C)C | 10 | 10 | < 1 | < 1 | < 500 | INH [2]: < 500 nM; INH [4]: < 500 nM; INH [6]: < 0.5 µM
NC(=O)c1cc2c([nH]1)-c1ccncc1OC2C1CCOCC1 (stereo in doubt; form 2) [listing 2 of 2 here] |  |  |  |  |  | INH [4]: < 500 nM; INH [6]: 0.5 µM
NC(=O)c1cc2c([nH]1)-c1ccncc1OC21CCN(CC(F)(F)F)CC1 | 10 | 10 | 1 | 1 |  | 
CCn1c(C(N)=O)cc2c1-c1ccncc1OC21CCCCC1 [listing 3 of 3 here] |  |  |  |  |  | IC50 (CDK8/Cyclin C): 0.301 µM
